Values of other authors as cited in PubChem BioAssay AID1259409 (Chemical Carcinogenesis Research Information System (CCRIS), 2018).

Test system: rodent chemically induced tumor inhibition, incidence and multiplicity
Assay: CCRIS tumor inhibitor studies

| Compound | tumour outcome (control, treated, inhibition, significance) (Carcinogen: N-BUTYL-N-(4-HYDROXYBUTYL)NITROSAMINE, 3817-11-6, Dose [Inhibitor]: 1.5 MMOL/KG/D IN DIET FOR 108 D STARTING 1 WK POST CARCINOGEN TREATMENT (STUDY DURATION: 171 D), Route [Inhibitor]: ORAL, Species: MOUSE, Strain/Sex: BDF/MALE, Target Tissue: Type of Lesion: URINARY BLADDER: TRANSITIONAL CELL CARCINOMA, Dose [Carcinogen]: 5 MG 2/WK FOR 9 WK, Promoter: NONE USED) | tumour outcome (control, treated, inhibition, significance) (Carcinogen: N-NITROSOBIS(2-OXOPROPYL)AMINE, 60599-38-4, Dose [Inhibitor]: 0.25 MMOL/KG OF DIET FOR 357 D STARTING 2 WK AFTER LAST CARCINOGEN DOSE AND INTERRUPTED BY A 1 WK REST PERIOD OF VEHICLE, Route [Inhibitor]: ORAL, Species: HAMSTER, Strain/Sex: SYRIAN/FEMALE, Target Tissue: Type of Lesion: LIVER: HEPATOCELLULAR CARCINOMA, Dose [Carcinogen]: 20 MG/KG INJECTION GIVEN TWICE 1 WK APART, Promoter: NONE USED) | tumour outcome (control, treated, inhibition, significance) (Carcinogen: N-NITROSOBIS(2-OXOPROPYL)AMINE, 60599-38-4, Dose [Inhibitor]: 0.25 MMOL/KG OF DIET FOR 357 D STARTING 2 WK AFTER LAST CARCINOGEN DOSE AND INTERRUPTED BY A 1 WK REST PERIOD OF VEHICLE, Route [Inhibitor]: ORAL, Species: HAMSTER, Strain/Sex: SYRIAN/FEMALE, Target Tissue: Type of Lesion: PANCREAS: CARCINOMA, Dose [Carcinogen]: 20 MG/KG INJECTION GIVEN TWICE 1 WK APART, Promoter: NONE USED) | tumour outcome (control, treated, inhibition, significance) (Carcinogen: N-NITROSOBIS(2-OXOPROPYL)AMINE, 60599-38-4, Dose [Inhibitor]: 0.25 MMOL/KG OF DIET FOR 357 D STARTING 2 WK AFTER LAST CARCINOGEN DOSE AND INTERRUPTED BY A 1 WK REST PERIOD OF VEHICLE, Route [Inhibitor]: ORAL, Species: HAMSTER, Strain/Sex: SYRIAN/MALE, Target Tissue: Type of Lesion: LIVER: HEPATOCELLULAR CARCINOMA, Dose [Carcinogen]: 20 MG/KG INJECTION GIVEN TWICE 1 WK APART, Promoter: NONE USED) | tumour outcome (control, treated, inhibition, significance) (Carcinogen: N-NITROSOBIS(2-OXOPROPYL)AMINE, 60599-38-4, Dose [Inhibitor]: 0.25 MMOL/KG OF DIET FOR 357 D STARTING 2 WK AFTER LAST CARCINOGEN DOSE AND INTERRUPTED BY A 1 WK REST PERIOD OF VEHICLE, Route [Inhibitor]: ORAL, Species: HAMSTER, Strain/Sex: SYRIAN/MALE, Target Tissue: Type of Lesion: PANCREAS: CARCINOMA, Dose [Carcinogen]: 20 MG/KG INJECTION GIVEN TWICE 1 WK APART, Promoter: NONE USED) | tumour outcome (control, treated, inhibition, significance) (Carcinogen: N-NITROSOBIS(2-OXOPROPYL)AMINE, 60599-38-4, Dose [Inhibitor]: 0.5 MMOL/KG OF DIET FOR 357 D STARTING 2 WK AFTER LAST CARCINOGEN DOSE AND INTERRUPTED BY A 1 WK REST PERIOD OF VEHICLE-, Route [Inhibitor]: ORAL, Species: HAMSTER, Strain/Sex: SYRIAN/FEMALE, Target Tissue: Type of Lesion: LIVER: HEPATOCELLULAR CARCINOMA, Dose [Carcinogen]: 20 MG/KG INJECTION GIVEN TWICE 1 WK APART, Promoter: NONE USED) | tumour outcome (control, treated, inhibition, significance) (Carcinogen: N-NITROSOBIS(2-OXOPROPYL)AMINE, 60599-38-4, Dose [Inhibitor]: 0.5 MMOL/KG OF DIET FOR 357 D STARTING 2 WK AFTER LAST CARCINOGEN DOSE AND INTERRUPTED BY A 1 WK REST PERIOD OF VEHICLE-, Route [Inhibitor]: ORAL, Species: HAMSTER, Strain/Sex: SYRIAN/FEMALE, Target Tissue: Type of Lesion: PANCREAS: CARCINOMA, Dose [Carcinogen]: 20 MG/KG INJECTION GIVEN TWICE 1 WK APART, Promoter: NONE USED) | tumour outcome (control, treated, inhibition, significance) (Carcinogen: N-NITROSOBIS(2-OXOPROPYL)AMINE, 60599-38-4, Dose [Inhibitor]: 0.5 MMOL/KG OF DIET FOR 357 D STARTING 2 WK AFTER LAST CARCINOGEN DOSE AND INTERRUPTED BY A 1 WK REST PERIOD OF VEHICLE-, Route [Inhibitor]: ORAL, Species: HAMSTER, Strain/Sex: SYRIAN/MALE, Target Tissue: Type of Lesion: LIVER: HEPATOCELLULAR CARCINOMA, Dose [Carcinogen]: 20 MG/KG INJECTION GIVEN TWICE 1 WK APART, Promoter: NONE USED) | tumour outcome (control, treated, inhibition, significance) (Carcinogen: N-NITROSOBIS(2-OXOPROPYL)AMINE, 60599-38-4, Dose [Inhibitor]: 0.5 MMOL/KG OF DIET FOR 357 D STARTING 2 WK AFTER LAST CARCINOGEN DOSE AND INTERRUPTED BY A 1 WK REST PERIOD OF VEHICLE-, Route [Inhibitor]: ORAL, Species: HAMSTER, Strain/Sex: SYRIAN/MALE, Target Tissue: Type of Lesion: PANCREAS: CARCINOMA, Dose [Carcinogen]: 20 MG/KG INJECTION GIVEN TWICE 1 WK APART, Promoter: NONE USED) | tumour outcome (control, treated, inhibition, significance) (Carcinogen: N-NITROSOBIS(2-OXOPROPYL)AMINE, 60599-38-4, Dose [Inhibitor]: 0, 5 UG/D FROM OSMOTIC PUMP FOR 2 MO, Route [Inhibitor]: SUBCUTANEOUS IMPLANT, Species: HAMSTER, Strain/Sex: SYRIAN/FEMALE, Target Tissue: Type of Lesion: PANCREAS: ADENOCARCINOMA) | tumour outcome (control, treated, inhibition, significance) (Carcinogen: N-NITROSOBIS(2-OXOPROPYL)AMINE, 60599-38-4, Dose [Inhibitor]: 0, 20 UG/D BEGINNING 18 WK POST CARCINOGEN TREATMENT AND CONTINUING FOR 8 WK (STUDY DURATION: 32 WK), Route [Inhibitor]: SUBCUTANEOUS, Species: HAMSTER, Strain/Sex: SYRIAN/FEMALE, Target Tissue: Type of Lesion: PANCREAS: ADENOCARCINOMA, Dose [Carcinogen]: TREATMENT FOR 6 WK (DOSE NOT STATED), Promoter: NONE USED) | tumour outcome (control, treated, inhibition, significance) (Carcinogen: N-NITROSOBIS(2-OXOPROPYL)AMINE, 60599-38-4, Dose [Inhibitor]: 0, 20 UG/D FROM OSMOTIC PUMP FOR 2 MO, Route [Inhibitor]: SUBCUTANEOUS IMPLANT, Species: HAMSTER, Strain/Sex: SYRIAN/FEMALE, Target Tissue: Type of Lesion: PANCREAS: ADENOCARCINOMA, Promoter: NONE USED) | tumour outcome (control, treated, inhibition, significance) (Carcinogen: N-NITROSOBIS(2-OXOPROPYL)AMINE, 60599-38-4, Dose [Inhibitor]: 0, 30 UG/D BEGINNING 18 WK POST CARCINOGEN TREATMENT AND CONTINUING FOR 8 WK (STUDY DURATION: 32 WK), Route [Inhibitor]: SUBCUTANEOUS, Species: HAMSTER, Strain/Sex: SYRIAN/FEMALE, Target Tissue: Type of Lesion: PANCREAS: ADENOCARCINOMA, Dose [Carcinogen]: TREATMENT FOR 6 WK (DOSE NOT STATED), Promoter: NONE USED) | tumour outcome (control, treated, inhibition, significance) (Carcinogen: N-NITROSOBIS(2-OXOPROPYL)AMINE, 60599-38-4, Dose [Inhibitor]: 0, 30 UG/D FOR 2 MO, Route [Inhibitor]: SUBCUTANEOUS, Species: HAMSTER, Strain/Sex: SYRIAN/FEMALE, Target Tissue: Type of Lesion: PANCREAS: ADENOCARCINOMA) | tumour outcome (control, treated, inhibition, significance) (Carcinogen: N-NITROSOBIS(2-OXOPROPYL)AMINE, 60599-38-4, Dose [Inhibitor]: 0, 60 UG/D BEGINNING 18 WK POST CARCINOGEN TREATMENT AND CONTINUING FOR 8 WK (STUDY DURATION: 32 WK), Route [Inhibitor]: SUBCUTANEOUS, Species: HAMSTER, Strain/Sex: SYRIAN/FEMALE, Target Tissue: Type of Lesion: PANCREAS: ADENOCARCINOMA, Dose [Carcinogen]: TREATMENT FOR 6 WK (DOSE NOT STATED), Promoter: NONE USED) |
| --- | --- | --- | --- | --- | --- | --- | --- | --- | --- | --- | --- | --- | --- | --- | --- |
| CC1=C(/C=C/C(C)=C/C=C/C(C)=C/C(=O)NCCCO)C(C)(C)CCC1 | 31/55 (56%), 28/54 (51%), 9%, not significant | 5%, 42%, -740%, not calculated | 38%, 32%, 16%, not calculated | 7%, 0%, 100%, not calculated | 34%, 27%, 21%, not calculated | 5%, 9%, -80%, not calculated | 38%, 27%, 29%, not calculated | 7%, 12%, -71%, not calculated | 34%, 40%, -18%, not calculated |  |  |  |  |  |  |
| CC(C)CC(CN[C@@H](CC(C)C)C(N)=O)NC(=O)[C@H](Cc1cnc[nH]1)NC(=O)CNC(=O)[C@@H](NC(=O)C(C)NC(=O)[C@H](Cc1c[nH]c2ccccc12)NC(=O)[C@H](CCC(N)=O)NC(=O)[C@H]1Cc2c([nH]c3ccccc23)CN1)C(C)C (stereo not given in full) |  |  |  |  |  |  |  |  |  | 10/11 (91%), 7/11 (64%), 30%, not calculated | 12/12 (100%), 9/12 (75%), 25%, not significant | 12/12 (100%), 6/12 (50%), 50%, not calculated | 11/12 (92%), 8/12 (67%), 27%, not significant | 11/13 (85%), 12/13 (92%), -8%, not calculated | 12/12 (100%), 2/12 (17%), 83%, p<0.01 |
